Reference: paper PMC8678048 (Frontiers in Microbiology, 2021)
Where two headings read alike, the source gives them in different places. Positions of bridges follow the written chain, without caps; N, C: chain ends. Residues, ends and D or L forms follow the SMILES beside them.

Assays:
[1] = tested on: thrombin; format: biochemical; conditions: 10μM
[2] = tested on: ASFV SY18 strain; format: cell-based, African swine fever virus
[3] = tested on: human plasma (coagulation system); format: biochemical; conditions: pH 7.4
[4] = tested on: Vero cells
[5] = tested on: PAM cells

CC[C@H](C)[C@@H]1NC(=O)CNC(=O)[C@H](CO)NC(=O)[C@@H]2CSSC[C@@H](C(=O)N[C@@H](Cc3ccc(O)cc3)C(=O)O)NC(=O)[C@H](CCCCN)NC(=O)[C@@H]3CSSC[C@H](NC(=O)[C@H](CCC(N)=O)NC(=O)[C@H](Cc4ccc(O)cc4)NC(=O)[C@H](CCC(N)=O)NC(=O)[C@H](CC(N)=O)NC(=O)[C@H](Cc4ccccc4)NC(=O)[C@@H]4CCCN4C(=O)[C@@H](NC(=O)CNC(=O)[C@H](Cc4ccc(O)cc4)NC(=O)CN)CSSC[C@H](NC(=O)[C@H](Cc4ccc(O)cc4)NC(=O)CNC(=O)CNC(=O)[C@H](CCCCN)NC(=O)[C@H](Cc4ccc(O)cc4)NC(=O)CNC(=O)[C@H](CCCNC(=N)N)NC1=O)C(=O)N[C@@H](CCCCN)C(=O)NCC(=O)N[C@@H]([C@@H](C)O)C(=O)N[C@@H](Cc1ccccc1)C(=O)N[C@@H](CCCCN)C(=O)N[C@@H](CCC(N)=O)C(=O)N[C@@H]([C@@H](C)O)C(=O)N3)C(=O)N[C@@H](Cc1c[nH]cn1)C(=O)N[C@@H](CO)C(=O)N[C@@H](Cc1c[nH]cn1)C(=O)N2 [OPTX-1] (H-GYGCPFNQYQCHSHCSGIRGYKGGYCKGTFKQTCKCY-OH; disulfide 4-26, 11-34, 15-36 (inferred); N-terminus and C-terminus assumed)
thrombin inhibitory effect [1]: the activity of thrombin was inhibited | inhibition of ASFV infection/replication ([2]; 5μM): inhibited ASFV infection in PAM cells | inhibition of ASFV infection/replication ([2]; 10μM): inhibited ASFV infection in PAM cells | anticoagulant effect (plasma recalcification time) [3]: show anticoagulant effects in plasma-based coagulation assays | cytotoxicity on Vero cells [4]: less cytotoxicity on Vero cells than other defensins | overall cytotoxicity (Vero and PAM cells) [4]: relative low cytotoxicities | cytotoxicity on PAM cells [5]: more significant than on Vero cells
